This is an account of results in patent publication US20100204107A1, “USE OF URODILATIN AS A THERAPEUTIC AGENT” (priority 2007, published 2010).

This assay concerns Human Peripheral Blood Mononuclear Cells (PBMC). The experiment in a line: T cell proliferation assay (PHA, 3H-thymidine). The class given is cell-based. As to conditions: 10 micrograms per ml, 3 days plus 12 hours 3H-thymidine.

For Secretin, the “% of PHA induced control” value worked out at 100.5%.
